Source: patent publication EP1054888B1 (priority 1998, dated 1999)
Values after ≈ are worked out from the molar mass of the structure shown.

What was measured:
Assay in all cases: microbe, parasite or virus in culture
Assay type in all cases: cell-based
Alternaria solani = settings: read-out: MIC (Minimum Inhibitory Concentration) ALTESO
Botrytis cinerea = settings: read-out: MIC (Minimum Inhibitory Concentration) BOTRCI
Leptosphaeria nodorum = settings: Parastagonospora nodorum, read-out: MIC (Minimum Inhibitory Concentration) LEPTNO
Phytophthora infestans = settings: read-out: MIC (Minimum Inhibitory Concentration) PHYTIN
[1] = tested on: Magnaporthe grisea f. sp. oryzae; settings: Pyricularia oryzae, read-out: MIC (Minimum Inhibitory Concentration) PYRIOR, Table II; total inhibition of mycelial growth, V8 juice nutrient solution, 6-12 days at 18-25°C, visual inspection
Pyrenophora teres = settings: read-out: MIC (Minimum Inhibitory Concentration) PYRNTE
Rhizoctonia solani = settings: read-out: MIC (Minimum Inhibitory Concentration) RHIZSO
Sclerotinia sclerotiorum = settings: read-out: MIC (Minimum Inhibitory Concentration) SCLESC
[2] = tested on: Mycosphaerella ligulicola; settings: Stagonosporopsis ligulicola, read-out: MIC (Minimum Inhibitory Concentration) MYCOLG
Monilina fructigena = settings: read-out: MIC (Minimum Inhibitory Concentration) MONIFG

Structure (SMILES)	MIC (Alternaria solani) [µg/mL]	MIC (Botrytis cinerea) [µg/mL]	MIC (Leptosphaeria nodorum) [µg/mL]	MIC (Phytophthora infestans) [µg/mL]	MIC [1] [µg/mL]	MIC (Pyrenophora teres) [µg/mL]	MIC (Rhizoctonia solani) [µg/mL]	MIC (Sclerotinia sclerotiorum) [µg/mL]	MIC [2] [µg/mL]	MIC (Monilina fructigena) [µg/mL]
CCC(C)c1c(-c2c(F)cccc2Cl)c(Cl)nc2ncnn12 (stereo not shown) [Example 28]	6.25 (≈ 18.4 µM)	3.13 (≈ 9.23 µM)	> 100	> 100	1.56 (≈ 4.6 µM)	6.25 (≈ 18.4 µM)	0.78 (≈ 2.3 µM)			
CC(C)Cc1c(-c2c(F)cccc2Cl)c(Cl)nc2ncnn12 [Example 26]	0.78 (≈ 2.3 µM)	0.2 (≈ 0.59 µM)	0.39 (≈ 1.15 µM)	> 100	< 0.05	3.13 (≈ 9.23 µM)	0.78 (≈ 2.3 µM)			
CCCCc1c(-c2ccccc2C)c(Cl)nc2ncnn12 [Example 19]	1.56 (≈ 5.19 µM)	12.5 (≈ 41.6 µM)	12.5 (≈ 41.6 µM)	50 (≈ 166 µM)	0.78 (≈ 2.59 µM)	6.25 (≈ 20.8 µM)	> 100			
FC(F)(F)Oc1ccccc1-c1c(Cl)nc2ncnn2c1C1CCCO1 (stereo not shown) [Example 16]		25 (≈ 65 µM)	> 100					> 100	> 100	> 100
CC1CCC(c2c(-c3c(F)cccc3Cl)c(Cl)nc3ncnn23)CC1 (stereo not shown) [Example 2, 5-chloro-7-(4-methylcyclohexyl)-6-(2-chloro-6-fluorophenyl)-1,2,4-triazolo[1,5a]pyrimidine]	0.1 (≈ 0.264 µM)	0.2 (≈ 0.527 µM)		> 100	< 0.05	1.56 (≈ 4.11 µM)	> 100			
Fc1cc(F)c(-c2c(Cl)nc3ncnn3c2C2CCCCC2)c(F)c1 [Example 44]	< 0.05	< 0.05	0.2 (≈ 0.545 µM)	> 100	< 0.05	0.2 (≈ 0.545 µM)	0.78 (≈ 2.13 µM)			
CCCCc1c(-c2ccccc2)c(Cl)nc2ncnn12 [Example 23]	6.25 (≈ 21.8 µM)	> 100	> 100	50 (≈ 174 µM)	25 (≈ 87.2 µM)	> 100	> 100			
CCCCCc1c(-c2c(F)cccc2Cl)c(Cl)nc2ncnn12 [Example 18]		0.2 (≈ 0.566 µM)	1.56 (≈ 4.42 µM)					0.78 (≈ 2.21 µM)	0.78 (≈ 2.21 µM)	3.13 (≈ 8.86 µM)
Fc1cccc(F)c1-c1c(Cl)nc2ncnn2c1C1CCCCC1 [Example 40]	0.1 (≈ 0.287 µM)	0.39 (≈ 1.12 µM)	> 100	> 100	0.39 (≈ 1.12 µM)	3.13 (≈ 8.97 µM)	> 100			
Fc1cccc(Cl)c1-c1c(Cl)nc2ncnn2c1CCC(F)(F)F [Example 32]	3.13 (≈ 8.26 µM)	0.78 (≈ 2.06 µM)	> 100	50 (≈ 132 µM)	0.2 (≈ 0.528 µM)	12.5 (≈ 33 µM)	6.25 (≈ 16.5 µM)			
Fc1cccc(Cl)c1-c1c(Cl)nc2ncnn2c1C1CCCO1 (stereo not shown) [Example 11]		1.56 (≈ 4.42 µM)	1.56 (≈ 4.42 µM)					25 (≈ 70.8 µM)	12.5 (≈ 35.4 µM)	3.13 (≈ 8.86 µM)
COc1cc(F)c(-c2c(Cl)nc3ncnn3c2C2CCCC2)c(F)c1 [Example 97]	< 0.05	0.2 (≈ 0.548 µM)	6.25 (≈ 17.1 µM)	> 100	0.1 (≈ 0.274 µM)		0.39 (≈ 1.07 µM)			
Fc1ccc(-c2c(-c3c(F)cccc3Cl)c(Cl)nc3ncnn23)cc1 [Example 41]	1.56 (≈ 4.14 µM)	3.13 (≈ 8.3 µM)	> 100	> 100	0.1 (≈ 0.265 µM)	3.13 (≈ 8.3 µM)	3.13 (≈ 8.3 µM)			
Fc1cccc(Cl)c1-c1c(F)nc2ncnn2c1C1CCCCC1 [Example 37]			> 100	> 100		> 100	> 100			
CC(C)c1c(-c2c(F)cccc2Cl)c(Cl)nc2ncnn12 [Example 27]	> 100	0.78 (≈ 2.4 µM)	1.56 (≈ 4.8 µM)	> 100	0.2 (≈ 0.615 µM)	> 100	0.39 (≈ 1.2 µM)			
COc1cc(F)c(-c2c(Cl)nc3ncnn3c2C2CCCCC2)c(F)c1 [Example 68]	< 0.05	< 0.05	0.39 (≈ 1.03 µM)	> 100	< 0.05		0.78 (≈ 2.06 µM)			
Clc1ccccc1-c1c(Cl)nc2ncnn2c1C1CCCCC1 [Example 43]	1.56 (≈ 4.49 µM)	> 100	1.56 (≈ 4.49 µM)	> 100	0.39 (≈ 1.12 µM)	> 100	> 100			
COc1nc2ncnn2c(C2CCCCC2)c1-c1ccccc1F [Example 50]	> 100	> 100	> 100	> 100	25 (≈ 76.6 µM)	> 100	> 100			
COc1nc2ncnn2c(C2CCCCC2)c1-c1c(F)cccc1F [Example 7, 5-methoxy-7-cyclohexyl-6-(2,6-difluorophenyl)-1,2,4-triazolo[1,5a]pyrimidine]	1.56 (≈ 4.53 µM)	12.5 (≈ 36.3 µM)	> 100	> 100	1.56 (≈ 4.53 µM)	> 100	> 100			
